According to publication PMC2722925 (Biochemistry, 2008):
Several values for one entry are separate records, joined by “and”; a condition that tells them apart may be missing. Equal entries are not always repeated. Where two headings read alike, the source gives them in different places.

Legend:
[1] = target: T1, EPPasePGM (EPPase PGM domain, residues 69 to 330) (Bombyx mori, UniProt Q7YTB0); assay: Phosphatase activity; conditions: for Dephosphorylation by EPPasePGM (substrate specificity): 50 nM EPPasePGM, 1 mM compound, pH 7.5, pNPP as positive control, data not shown; for Km: substrate of wild-type EPPasePGM; for Km / kcat: pH 7.5, 37 °C; for kcat: substrate turnover by wild-type EPPasePGM, 50 nM enzyme
T1 sequence (Q7YTB0 69-330 isoform Q7YTB0-1): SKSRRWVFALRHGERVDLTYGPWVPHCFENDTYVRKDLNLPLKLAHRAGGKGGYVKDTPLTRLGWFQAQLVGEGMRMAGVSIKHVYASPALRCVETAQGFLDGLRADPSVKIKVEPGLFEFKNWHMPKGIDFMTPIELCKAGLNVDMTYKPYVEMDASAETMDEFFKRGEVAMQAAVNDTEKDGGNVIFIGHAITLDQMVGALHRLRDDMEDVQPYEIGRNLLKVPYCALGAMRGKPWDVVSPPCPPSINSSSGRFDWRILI

EPPase [2] = assay: Phosphatase activity of native or recombinant full-length EPPase; assay type: biochemical, Bombyx mori; conditions: E22P versus pTyr-peptide
EPPase [3] = conditions: native or recombinant full-length EPPase; ref [9]; cited from earlier work
EPPasePGM = target: T2, EPPasePGM (Bombyx mori, UniProt Q7YTB0); assay: Inhibition of EPPasePGM pNPP hydrolysis; assay type: biochemical
T2 sequence (Q7YTB0 69-330 isoform Q7YTB0-1): T1 sequence (Q7YTB0 69-330 isoform Q7YTB0-1)

EPPasePGM K292S [4] = target: T3, EPPasePGM K292S (Bombyx mori, UniProt Q7YTB0, K622S); assay type: biochemical
T3 sequence (Q7YTB0 399-660 K622S): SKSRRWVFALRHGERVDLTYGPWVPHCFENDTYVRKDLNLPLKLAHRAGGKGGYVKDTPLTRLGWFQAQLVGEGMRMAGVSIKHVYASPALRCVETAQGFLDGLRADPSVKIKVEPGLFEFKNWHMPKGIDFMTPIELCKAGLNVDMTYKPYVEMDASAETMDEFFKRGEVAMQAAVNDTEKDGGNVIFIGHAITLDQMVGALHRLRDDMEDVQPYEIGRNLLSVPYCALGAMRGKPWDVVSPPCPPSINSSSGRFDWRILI

Sts-1PGM = Sts-1PGM (Mus musculus, UniProt Q8BGG7); assay: Phosphatase activity; assay type: biochemical; conditions: for Km: substrate of Sts-1PGM; for kcat: substrate turnover by Sts-1PGM
Sequence of Sts-1PGM (Q8BGG7 369-638 limits assumed): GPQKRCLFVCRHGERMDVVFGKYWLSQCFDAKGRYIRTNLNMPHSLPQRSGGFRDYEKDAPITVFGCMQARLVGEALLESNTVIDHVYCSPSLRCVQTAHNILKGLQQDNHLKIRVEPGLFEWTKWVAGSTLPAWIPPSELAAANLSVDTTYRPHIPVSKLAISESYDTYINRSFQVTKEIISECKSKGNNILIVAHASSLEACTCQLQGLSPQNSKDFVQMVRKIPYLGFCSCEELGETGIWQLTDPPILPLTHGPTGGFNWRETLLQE

EPPasePGM K196S = EPPasePGM K196S (Bombyx mori, UniProt Q7YTB0, K526S); assay type: biochemical
Sequence of EPPasePGM K196S (Q7YTB0 399-660 K526S): as the sequence (Q7YTB0 399-660 K622S) above, with K128S, S224K counted along it

EPPasePGM K292S [5] = target: T3, EPPasePGM K292S; assay: biochemical
EPPasePGM K196D = EPPasePGM K196D (Bombyx mori, UniProt Q7YTB0, K526D); assay: Phosphatase activity of EPPasePGM K196D mutant; assay type: biochemical
Sequence of EPPasePGM K196D (Q7YTB0 399-660 K526D): as the sequence (Q7YTB0 399-660 K622S) above, with K128D, S224K counted along it

[6] = IC50, 1 mM pNPP, 50 nM EPPasePGM, 37 °C, pH 7.5
[7] = IC50, 1 mM pNPP, 50 nM EPPasePGM, 37 °C, text values in mM

## O=P(O)(O)Oc1cccc2ccccc12 [1-naphtyl phosphate]
[1]
  Dephosphorylation by EPPasePGM (substrate specificity): failed to dephosphorylate

## C[C@H](C(CCC(C)(C)O)OP(=O)(O)O)[C@H]1CCC2(O)C3=CC(=O)[C@@H]4C[C@@H](O)[C@@H](O)C[C@]4(C)[C@H]3CC[C@]12C (stereo partly drawn) [E22P, ecdysone 22-phosphate]
EPPase [2]
  kcat for E22P relative to pTyr-peptide (times lower): 8
EPPase [3]
  Km: 5.9 µM
  kcat: 0.94 s⁻¹

## O=C(O)[C@H](O)[C@@H](O)C(=O)O [L-tartrate]
EPPasePGM; concentrations as high as 100 mM
  Inhibition of pNPP hydrolysis by EPPasePGM: did not inhibit

## O=P(O)(O)O [Phosphate]
EPPasePGM
  Ki: 25800 µM
EPPasePGM; [6]
  IC50: 47.1 mM
EPPasePGM; [7]
  IC50: 47 ± 11 mM

## C[C@]12C=CC(=O)C=C1CC[C@@H]1[C@@H]2[C@@H](O)C[C@@]2(C)[C@H]1CC[C@]2(O)C(=O)COP(=O)([O-])[O-].[Na+].[Na+] [Prednisolone 21P, prednisolone 21-phosphate disodium salt]
[1]
  Km: 650 ± 170 µM
  kcat: 5.9 s⁻¹
EPPasePGM K292S [4]
  Km: 510 ± 230 µM
  kcat: 4.2 s⁻¹
Sts-1PGM
  Km: 450 ± 90 µM
  kcat: 0.15 s⁻¹
EPPasePGM K196S
  Km: 1060 ± 240 µM
  kcat: 6.1 s⁻¹

## [O]=[W](=[O])([OH])[OH] [Tungstate]
EPPasePGM K292S [5]
  IC50: 70 µM
EPPasePGM
  IC50: 0.052 mM
  Ki: 34 µM

## [O]=[V]([OH])([OH])[OH] [Vanadate]
EPPasePGM
  Ki: 1900 µM
EPPasePGM; [6]
  IC50: 2.91 mM
EPPasePGM; [7]
  IC50: 2.9 ± 0.43 mM

## O=C(CO)[C@@H](O)[C@H](O)[C@H](O)COP(=O)(O)O [fructose-6-phosphate]
[1]
  Dephosphorylation by EPPasePGM (substrate specificity): failed to dephosphorylate

## O=[N+]([O-])c1ccc(OP(=O)(O)O)cc1 [pNPP, para-nitrophenylphosphate]
[1]; pNPP hydrolysis
  kcat of EPPasePGM relative to Sts-1PGM (fold slower): 6
  kcat/Km of EPPasePGM relative to Sts-1PGM (fold slower): 20
[1]
  Km: 1900 ± 200 µM
  kcat: 11.7 ± 0.6 s⁻¹ and 11.7 s⁻¹
EPPasePGM K196D
  Km: 2500 ± 200 µM
  kcat: 2.4 s⁻¹
EPPasePGM K292S [4]
  Km: 2400 ± 200 µM
  kcat: 6.3 s⁻¹
Sts-1PGM
  Km: 500 ± 70 µM
  kcat: 70.1 s⁻¹
EPPase [3]
  Km: 13100 µM
  kcat: 135 s⁻¹
EPPasePGM K196S
  Km: 2700 ± 160 µM
  kcat: 5.0 s⁻¹

## C[C@H]1C[C@H]2[C@@H]3CCC4=CC(=O)C=C[C@]4(C)[C@@]3(F)[C@@H](O)C[C@]2(C)[C@@]1(O)C(=O)COP(=O)([O-])[O-].[Na+].[Na+] [β-Methasone 21P, β-methasone 21-phosphate disodium salt]
[1]
  Km: 730 ± 320 µM
  kcat: 10.2 s⁻¹

## O=P(O)(O)OC[C@H]1O[C@@H](O)[C@H](O)[C@@H](O)[C@@H]1O [β-glucose-6-phosphate]
[1]
  Dephosphorylation by EPPasePGM (substrate specificity): failed to dephosphorylate

## O=P(O)(O)OC(CO)CO [β-phospho-glycerol]
[1]
  Dephosphorylation by EPPasePGM (substrate specificity): failed to dephosphorylate

## O=P(O)(O)OC[C@H]1O[C@@H](O)[C@H](O)[C@@H]1O [β-ribose-5-phosphate]
[1]
  Dephosphorylation by EPPasePGM (substrate specificity): failed to dephosphorylate
